Here are results for 15 compounds from patent US20240400564A1 (Syndax Pharmaceuticals, Inc, priority 2021, published 2024).

pIC50: −log10 of the molar value.

One may read the pIC50 as the IC50 on a negative log10 scale, so that one unit is a factor of ten.

The target of the test is T1, human Menin and N-terminal portion of human MLL (amino acids 4-43) (Homo sapiens, UniProt O00255).
T1 construct: H-FL-Menin diluted to 4 nM in assay buffer
T1 sequence (O00255 1-610): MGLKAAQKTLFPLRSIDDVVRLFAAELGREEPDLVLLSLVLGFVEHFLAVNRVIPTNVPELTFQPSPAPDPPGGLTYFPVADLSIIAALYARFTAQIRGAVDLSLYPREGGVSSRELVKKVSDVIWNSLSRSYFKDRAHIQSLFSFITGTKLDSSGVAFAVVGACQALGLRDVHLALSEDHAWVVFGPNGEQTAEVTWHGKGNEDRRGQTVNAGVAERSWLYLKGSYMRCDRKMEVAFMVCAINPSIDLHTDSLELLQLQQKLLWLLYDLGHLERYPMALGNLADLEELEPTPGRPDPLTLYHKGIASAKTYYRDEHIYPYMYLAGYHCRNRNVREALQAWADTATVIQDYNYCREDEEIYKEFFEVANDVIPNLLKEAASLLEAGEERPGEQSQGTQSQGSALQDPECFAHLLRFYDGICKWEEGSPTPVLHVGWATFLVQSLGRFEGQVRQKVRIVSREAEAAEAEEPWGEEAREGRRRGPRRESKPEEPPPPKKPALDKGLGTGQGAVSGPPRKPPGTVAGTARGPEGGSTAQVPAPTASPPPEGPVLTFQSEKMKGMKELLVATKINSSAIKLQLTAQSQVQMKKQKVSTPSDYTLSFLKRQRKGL
The experiment in a line: Menin-MLL competition assay (HTRF). The class given is binding. The following applies: 1 hr incubation. From the text: Menin-MLL is a competition assay between human Menin and N-terminal portion of human MLL representing amino acids 4-43 of the protein. The interaction between Menin and MLL peptide was monitored by HTRF employing Terbium labeled anti-His6 antibody directed to the N-terminal His6-tag on recombinant Menin and FITC group covalently attached to the MLL peptide. The N-terminal fragment of MLL, retained in all MLL fusion proteins, is involved in the interactions with Menin, and this protein-protein interaction is critical for the MLL fusion proteins mediated leukemogenic transformations.
For IC50 determination test compounds were prepared as 10 mM DMSO stock solutions. Considering DMSO as the vehicle in the assay system. Lower sub-stocks of 50 μM were prepared from the 10 mM stock solution. To test the compounds in assay, 3.16-fold serial dilutions are made in 100% DMSO. Mid-stock of 50×compounds (50 μM) were serially diluted (3.16 fold) in 100% DMSO in Polypropylene plate. In assay plate 1 micro-litre of the previously prepared compound dilution was stamped. H-FL-Menin diluted to 4 nM in assay buffer (50 mM Tris-HCl, pH 7.4, 50 mM NaCl, freshly prepared 1 mM DTT, 0.01% BSA, 0.005% Triton X-100) was pre-incubated with 8 nM anti-His6-Tb for 30 min at room temperature. FITC-MLL-4-43 was diluted to 2 nM in assay buffer and 25 μL was dispensed into each well of the assay plate followed by addition of 25 μl of pre-incubated H-FL-Menin and anti-His6-Tb mixture. Final concentration H-FL-Menin diluted to 1 nM in assay plate with 2 nM anti-His6-Tb and 1 nM FITC-MLL-4-43. After 1 hr incubation at room temperature, the HTRF signal was measured on the Spark multi-label plate reader. Resulting data were captured as a ratio of RFU520/RFU485×1000. The max values were obtained from 0% inhibition in presence of 2% DMSO and the min. values were 100% inhibition in presence of 1 μM reference compound.
Background: Time-resolved FRET reads energy transfer from a long-lived donor to a nearby acceptor.
For `C[C@@H]1COC[C@H](C)N1C(=O)c1cc(F)ccc1Oc1cncnc1N1CC2(CCN(C[C@@H]3CC[C@@H](NS(C)(=O)=O)CO3)CC2)C1` [Example 23, N-((3R,6S)-6-((2-(5-(2-((3S,5R)-3,5-Dimethylmorpholine-4-carbonyl)-4-fluorophenoxy)pyrimidin-4-yl)-2,7-diazaspiro[3.5]nonan-7-yl)methyl)tetrahydro-2H-pyran-3-yl)methanesulfonamide], the negative-log IC50 (pIC50) is > 7.00.

Turning to `CCS(=O)(=O)N[C@@H]1CC[C@@H](CN2CCC3(CC2)CN(c2ncncc2Oc2ccc(F)cc2C(=O)N2[C@H](C)COC[C@@H]2C)C3)OC1` [Example 24, N-((3R,6S)-6-((2-(5-(2-((3S,5R)-3,5-dimethylmorpholine-4-carbonyl)-4-fluorophenoxy)pyrimidin-4-yl)-2,7-diazaspiro[3.5]nonan-7-yl)methyl)tetrahydro-2H-pyran-3-yl)ethanesulfonamide], the negative-log IC50 (pIC50) was > 7.00.

On to `CC(C)S(=O)(=O)N[C@@H]1CC[C@@H](CN2CCC3(CC2)CN(c2ncncc2Oc2ccc(F)cc2C(=O)N2[C@H](C)COC[C@@H]2C)C3)OC1` [Example 25, N-((3R,6S)-6-((2-(5-(2-((3S,5R)-3,5-Dimethylmorpholine-4-carbonyl)-4-fluorophenoxy)pyrimidin-4-yl)-2,7-diazaspiro[3.5]nonan-7-yl)methyl)tetrahydro-2H-pyran-3-yl)propane-2-sulfonamide], for which the negative-log IC50 (pIC50) is > 7.00.

Consider `C[C@@H]1COC[C@H](C)N1C(=O)c1cc(F)ccc1Oc1cncnc1N1CC2(CCN(C[C@@H]3CC[C@@H](NS(=O)(=O)C4CC4)CO3)CC2)C1` [Example 26, N-((3R,6S)-6-((2-(5-(2-((3S,5R)-3,5-Dimethylmorpholine-4-carbonyl)-4-fluorophenoxy)pyrimidin-4-yl)-2,7-diazaspiro[3.5]nonan-7-yl)methyl)tetrahydro-2H-pyran-3-yl)cyclopropanesulfonamide], for which the pIC50 was > 7.00.

In the case of `C[C@@H]1COC[C@H](C)N1C(=O)c1cc(F)ccc1Oc1cncnc1N1CC2(CCN(C[C@@H]3CC[C@@H](NS(=O)(=O)C4COC4)CO3)CC2)C1` [Example 27, N-((3R,6S)-6-((2-(5-(2-((3S,5R)-3,5-Dimethylmorpholine-4-carbonyl)-4-fluorophenoxy)pyrimidin-4-yl)-2,7-diazaspiro[3.5]nonan-7-yl)methyl)tetrahydro-2H-pyran-3-yl)oxetane-3-sulfonamide], the negative-log IC50 (pIC50) is > 7.00.

For the compound `C[C@@H]1COC[C@@H](C)N1C(=O)c1cc(F)ccc1Oc1cncnc1N1CC2(CCN(C[C@@H]3CC[C@@H](NS(C)(=O)=O)CO3)CC2)C1` [Example 28, N-((3R,6S)-6-((2-(5-(2-((3R,5R)-3,5-Dimethylmorpholine-4-carbonyl)-4-fluorophenoxy)pyrimidin-4-yl)-2,7-diazaspiro[3.5]nonan-7-yl)methyl)tetrahydro-2H-pyran-3-yl)methanesulfonamide], the pIC50 was > 7.00.

As to `CCS(=O)(=O)N[C@@H]1CC[C@@H](CN2CCC3(CC2)CN(c2ncncc2Oc2ccc(F)cc2C(=O)N2[C@H](C)COC[C@H]2C)C3)OC1` [Example 29, N-((3R,6S)-6-((2-(5-(2-((3R,5R)-3,5-Dimethylmorpholine-4-carbonyl)-4-fluorophenoxy)pyrimidin-4-yl)-2,7-diazaspiro[3.5]nonan-7-yl)methyl)tetrahydro-2H-pyran-3-yl)ethanesulfonamide], the negative logarithm of the IC50 (pIC50) was > 7.00.

`CC(C)S(=O)(=O)N[C@@H]1CC[C@@H](CN2CCC3(CC2)CN(c2ncncc2Oc2ccc(F)cc2C(=O)N2[C@H](C)COC[C@H]2C)C3)OC1` [Example 30, N-((3R,6S)-6-((2-(5-(2-((3R,5R)-3,5-Dimethylmorpholine-4-carbonyl)-4-fluorophenoxy)pyrimidin-4-yl)-2,7-diazaspiro[3.5]nonan-7-yl)methyl)tetrahydro-2H-pyran-3-yl)propane-2-sulfonamide]: the negative-log IC50 (pIC50) is > 7.00.

As for `C[C@@H]1COC[C@@H](C)N1C(=O)c1cc(F)ccc1Oc1cncnc1N1CC2(CCN(C[C@@H]3CC[C@@H](NS(=O)(=O)C4CC4)CO3)CC2)C1` [Example 31, N-((3R,6S)-6-((2-(5-(2-((3R,5R)-3,5-dimethylmorpholine-4-carbonyl)-4-fluorophenoxy)pyrimidin-4-yl)-2,7-diazaspiro[3.5]nonan-7-yl)methyl)tetrahydro-2H-pyran-3-yl)cyclopropanesulfonamide], the pIC50 is > 7.00.

For the compound `C[C@@H]1COC[C@@H](C)N1C(=O)c1cc(F)ccc1Oc1cncnc1N1CC2(CCN(C[C@@H]3CC[C@@H](NS(=O)(=O)C4COC4)CO3)CC2)C1` [Example 32, N-((3R,6S)-6-((2-(5-(2-((3R,5R)-3,5-Dimethylmorpholine-4-carbonyl)-4-fluorophenoxy)pyrimidin-4-yl)-2,7-diazaspiro[3.5]nonan-7-yl)methyl)tetrahydro-2H-pyran-3-yl)oxetane-3-sulfonamide], the pIC50 is > 7.00.

For `CCS(=O)(=O)N[C@@H]1CC[C@@H](CN2CCC3(CC2)CN(c2ncncc2Oc2ccc(F)cc2C(=O)N(CCOC)C(C)C)C3)OC1` [Example 35, 2-((4-(7-(((2S,5R)-5-(Ethylsulfonamido)tetrahydro-2H-pyran-2-yl)methyl)-2,7-diazaspiro[3.5]nonan-2-yl)pyrimidin-5-yl)oxy)-5-fluoro-N-isopropyl-N-(2-methoxyethyl)benzamide], the negative-log IC50 (pIC50) is > 7.00.

For `CCS(=O)(=O)N[C@@H]1CC[C@@H](CN2CCC3(CC2)CN(c2ncncc2Oc2ccc(F)cc2C(=O)N2[C@H](C)CCC[C@@H]2C)C3)OC1` [Example 36, N-((3R,6S)-6-((2-(5-(2-((2S,6R)-2,6-Dimethylpiperidine-1-carbonyl)-4-fluorophenoxy)pyrimidin-4-yl)-2,7-diazaspiro[3.5]nonan-7-yl)methyl)tetrahydro-2H-pyran-3-yl)ethanesulfonamide], the negative-log IC50 (pIC50) was > 7.00.

`CCNC(=O)N[C@@H]1CC[C@@H](CN2CCC3(CC2)CN(c2ncncc2Oc2ccc(F)cc2C(=O)N(CC)C(C)C)C3)OC1` [Example 39, N-Ethyl-2-((4-(7-(((2S,5R)-5-(3-ethylureido)tetrahydro-2H-pyran-2-yl)methyl)-2,7-diazaspiro[3.5]nonan-2-yl)pyrimidin-5-yl)oxy)-5-fluoro-N-isopropylbenzamide]: the negative-log IC50 (pIC50) was > 7.00.

For the compound `C[C@H]1COCCN1C(=O)c1cc(F)ccc1Oc1cncnc1N1CC2(CCN(C[C@@H]3CC[C@@H](NS(=O)(=O)C4CC4)CO3)CC2)C1` [Example 40, N-((3R,6S)-6-((2-(5-(4-Fluoro-2-((S)-3-methylmorpholine-4-carbonyl)phenoxy)pyrimidin-4-yl)-2,7-diazaspiro[3.5]nonan-7-yl)methyl)tetrahydro-2H-pyran-3-yl)cyclopropanesulfonamide], the negative-log IC50 (pIC50) was > 7.00.

In the case of `CCN(C(=O)c1cc(F)ccc1Oc1cncnc1N1CC2(CCN(C[C@@H]3CC[C@@H](NC(=O)NCC4CC4)CO3)CC2)C1)C(C)C` [Example 42, 2-((4-(7-(((2S,5R)-5-(3-(Cyclopropylmethyl)ureido)tetrahydro-2H-pyran-2-yl)methyl)-2,7-diazaspiro[3.5]nonan-2-yl)pyrimidin-5-yl)oxy)-N-ethyl-5-fluoro-N-isopropylbenzamide], the pIC50 is > 7.00.
